The values that follow come from patent publication US11091806B2, “Genetic markers associated with response to CRTH2 receptor antagonists” (Merck Sharp & Dohme Corp., priority 2015, dated 2021).

Assay [1] concerns asthmatic subjects with persistent symptoms. The assay can be described thus: 17-week randomized, double-blind, placebo-controlled, crossover study of FEV1 in asthmatic subjects receiving montelukast, with pharmacogenetic subgroup analysis. The class given is in vivo, human. The following applies: for Estimated mean treatment difference in FEV1 at Week 4 using the new method of analysis, LSMean: Compound A + montelukast vs placebo + montelukast, xdiff=0. The text has this:
FIG. 2 is graphical depiction of the study design. The study was a 17-week randomized, double-blind, placebo-controlled, crossover study with in-house blinding to evaluate the effect of {(7R)-4-fluoro-7-[5-(4-fluorobenzyl)-1H-[1,2,3]triazol-1-yl]-6,7,8,9-tetrahydropyrido[1,2-a]indol-10-yl}-acetic acid (hereinafter “Compound A”) on FEV1 when dosed for 4 weeks in asthmatic subjects with persistent symptoms while receiving montelukast (ML). Overall, 104 patients completed the study. Period I was a pre-study period. Subjects receiving long acting beta-agonists (LABAs) with inhaled corticosteroid (ICS), either separately or as part of a fixed-dose combination, were asked to discontinue the LABA component while still receiving ICS. Period II was a 2- to 4-week run-in period during which subjects receive open-label montelukast (ML) and single-blind placebo (PBO). Subjects receiving ICS or other controllers were required to taper off these medications while receiving montelukast; Period III was a 4-week, double-blind, randomized treatment period during which subjects received either Compound A 150 mg or matching-image placebo while continuing to receive montelukast 10 mg QD; Period IV was a 4-week wash out period during which subjects receive placebo in a single-blind fashion while continuing to receive montelukast 10 mg QD; Period V was a 4-week double-blind period during which subjects were crossed over to the opposite treatment not received during Period III.
The primary efficacy endpoint of the study was forced expiratory volume in 1 second (FEV1) after 4 weeks of dosing, and the study had 85% power to detect a true overall mean treatment difference of 110 mL.
A common analysis for crossover designs with longitudinal measurements in each period uses a linear mixed effects “cell means” model with the clinical measure (here, FEV1) as the dependent variable, and sequence (S=M→P, P→M), treatment (T=M,P), visit (V=0, 2, 4 weeks), and all possible interactions involving S, T, and V as independent variables; M=Compound A+montelukast, P=placebo+montelukast. In addition, to minimize assumptions, a covariance matrix without imposition of any structure (such as compound symmetry) is used to account for the intra-patient correlations among FEV1 responses over time and across the two treatments within each sequence.
This common analysis can be misleading if both of the following conditions are encountered in either crossover sequence: (i) the observed mean difference in baseline means for the two treatments is “far” from zero, and (ii) baseline and post-baseline responses are very strongly correlated (correlation 0.9 or higher). […] Consequently, we analyzed the FEV1 data using an extension of the method of analysis described in Mehrotra D V, Pharmaceutical Statistics 13, 376-387 (2014). This second analytical method is specifically designed for crossover analyses with baseline measurements. To do so, we added “xdiff” (baseline difference between treatments M and P) and interactions between xdiff and all the other fixed effect terms involving S, T, and V to the aforementioned common analysis crossover model; the mean treatment difference at week 4 was estimated at xdiff=0 via the SAS code below.
In the SAS code above, patients with a missing xdiff value are automatically removed from the analysis. To generate results in which all 103 patients are retained in the analysis, missing period 2 baseline FEV1 values (resulting in missing xdiff values, which was the case for ˜20% of the patients due to dropout) were imputed separately in each sequence via a simple linear regression model with the period 2 baseline as the dependent variable and the corresponding period 1 baseline as the independent variable. As noted earlier, the observed correlation between period 1 and period 2 FEV1 baselines was 0.9 in both sequences, providing reassurance that the imputed values for missing period 2 baselines had good reliability. […]

The next assay concerns allergic rhinitis. The conditions noted are these: in vivo; cited from earlier work.
Assay [2] deals with patient population afflicted with eosinophilic severe asthma. The following applies: patients with eosinophilic severe asthma; Phase IIa; cited from earlier work.

As to `O=C(O)Cc1c2n(c3c(F)cccc13)C[C@H](n1nncc1Cc1ccc(F)cc1)CC2` [Compound A, {(7R)-4-fluoro-7-[5-(4-fluorobenzyl)-1H-[1,2,3]triazol-1-yl]-6,7,8,9-tetrahydropyrido[1,2-a]indol-10-yl}-acetic acid], the “FEV1: Estimated Mean Treatment Difference at Week 4 by Genotype Subgroup for rs12748961, LSMean” value was 59 mL in assay [1] (C = 0 (N = 74), no copies of the C allele) and 268 mL in assay [1] (C ≥1 (N = 29), one or two copies of the C allele). For the same molecule, the “Estimated mean treatment difference in FEV1 at Week 4 using the new method of analysis, LSMean” value in assay [1] (missing period 2 FEV1 baselines imputed: No (N = 85)) is reported as 120 mL; in assay [1] (missing period 2 FEV1 baselines imputed: Yes (N = 103)) it was 122 mL. Also, the “Effectiveness in improving FEV1 levels relative to placebo” value in assay [1] (after four weeks of treatment in patients who continue to take montelukast as background therapy) was “notably more effective”. Further, the “Estimated benefit (FEV1) in patients without the C allele of rs12748961” value in assay [1] (remaining 70% of the patients (C = 0)) is reported as “relatively small”.

Turning to `O=C(O)CCn1c2c(c3ccccc31)C[C@H](NS(=O)(=O)c1ccc(F)cc1)CC2` [Ramatroban, 3-((3R)-3-{[(4-fluorophenyl)sulfonyl]amino}-1,2,3,4-tetrahydro-9H-carbazol-9-yl)propanoic acid], the “Efficacy in allergic rhinitis” value in the assay on allergic rhinitis is given as “some degree of efficacy”.

Turning to `Cc1c(CC(=O)O)c2cccnc2n1Cc1ccc(S(C)(=O)=O)cc1C(F)(F)F` [fevipiprant, 2-(2-methyl-1-(4-(methylsulfonyl)-2-(trifluoromethyl)benzyl)-1H-pyrrolo[2,3-b]pyridin-3-yl)acetic acid], in assay [2], the Sputum eosinophils result is “reduction of sputum eosinophils”.
